Drawing on publication PMC3146629 (2011), this text covers Kd for 1 compound.

Structures are written as SMILES. Some results are limits rather than exact numbers.

The Kd is the concentration at which binding is half-saturated. Low readings indicate tighter binding, high ones weaker binding.

The assay addresses HSPA8 (Hsc70) (Bos taurus, UniProt P19120). The assay can be described thus: […]-1H TROSY NMR titration. Format: binding.

Sequence of HSPA8 (Hsc70) (P19120 1-383): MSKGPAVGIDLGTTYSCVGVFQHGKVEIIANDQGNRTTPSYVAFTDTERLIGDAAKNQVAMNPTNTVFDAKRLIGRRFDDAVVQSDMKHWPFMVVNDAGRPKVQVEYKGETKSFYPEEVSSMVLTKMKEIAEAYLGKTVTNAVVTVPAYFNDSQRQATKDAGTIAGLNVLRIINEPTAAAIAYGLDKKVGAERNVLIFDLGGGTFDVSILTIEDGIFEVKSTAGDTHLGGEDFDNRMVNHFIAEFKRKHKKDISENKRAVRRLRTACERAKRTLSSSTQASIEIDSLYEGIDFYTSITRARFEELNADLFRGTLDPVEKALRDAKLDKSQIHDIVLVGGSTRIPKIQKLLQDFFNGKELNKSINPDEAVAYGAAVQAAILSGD

For `CCn1c(=Cc2cccc[n+]2CC)sc(=C2Sc3ccccc3N2C)c1=O` [MKT-077, 1-ethyl-2-[[3-ethyl-5-(3-methylbenzothiazolin-2-yliden)]-4-oxothiazolidin-2-ylidenemethyl] pyridinium chloride], the Kd was < 10 µM.
